# From patent EP0297523A2, “Process for the preparation of elaiophyline and the use thereof” (HOECHST AKTIENGESELLSCHAFT, priority 1987, dated 1989)
# How the values were obtained:
# [1] = system: Haemonchus contortus; test: Anthelmintic effect in artificially infected lambs (abomasal nematodes), coproscopy and necropsy; type: in vivo; settings: up to 14 days after application
# Procedure: (§1) Die anthelminthische Wirkung vom Elaiophylin wurde an Lämmern mit 30 - 40 kg Körpergewicht untersucht. Dazu wurden die Lämmer artifiziell mit Infektionsstadien von Labmagen- (Haemonchus contortus) und Dünndarm-(Trichostrongylus colubriformis) Nematoden infiziert. Nach Abschluß der Entwicklungszeit (Präpatenzperiode) der Nematoden erfolgte die Applikation von Elaiophylin in Dosierungen von 2,5, 5,0 und 10,0 mg/kg (p.o.) bzw. 2,5 mg/kg (subcutan).
# (§2) Durch koproskopische Untersuchungen vor und bis zu 14 Tagen nach der Applikation des Elaiophylins und anschließende Sektion mit helminthologischer Aufarbeitung wurde die prozentuale Reduktion der Schaf-Nematoden ermittelt (s. Tab. 1). Tabelle 1
# [2] = system: Trichostrongylus colubriformis; test: Anthelmintic effect in artificially infected lambs (small intestine nematodes), coproscopy and necropsy; type: in vivo; settings: up to 14 days after application
# Procedure: as §1, §2
smiles,measurement,setting,value
CC[C@@H]1[C@@H](C)O[C@@](O)([C@@H](C)[C@H](O)[C@H](C)[C@H]2OC(=O)/C=C/C=C/[C@H](C)[C@@H]([C@@H](C)[C@@H](O)[C@H](C)[C@@]3(O)C[C@@H](O[C@H]4C[C@H](O)[C@H](O)[C@H](C)O4)[C@H](CC)[C@@H](C)O3)OC(=O)/C=C/C=C/[C@@H]2C)C[C@H]1O[C@H]1C[C@H](O)[C@H](O)[C@H](C)O1 [Elaiophylin],proz. Reduktion der Nematoden H. contortus,"[1]; lambs 30 - 40 kg, 2,5 mg p.o.","44,6%"
same,proz. Reduktion der Nematoden H. contortus,"[1]; lambs 30 - 40 kg, 2,5 mg s.c.","46,5%"
same,proz. Reduktion der Nematoden H. contortus,"[1]; lambs 30 - 40 kg, 5,0 mg p.o.","89,3%"
same,proz. Reduktion der Nematoden H. contortus,"[1]; lambs 30 - 40 kg, 10,0 mg p.o.","85,0%"
same,proz. Reduktion der Nematoden T. colubriformis,"[2]; lambs 30 - 40 kg, 2,5 mg p.o.","28,4%"
same,proz. Reduktion der Nematoden T. colubriformis,"[2]; lambs 30 - 40 kg, 2,5 mg s.c.","35,1%"
same,proz. Reduktion der Nematoden T. colubriformis,"[2]; lambs 30 - 40 kg, 5,0 mg p.o.","73,8%"
same,proz. Reduktion der Nematoden T. colubriformis,"[2]; lambs 30 - 40 kg, 10,0 mg p.o.","73,8%"
